Results: patent US6914045B2, “Glycopeptide antibiotics” (Wyeth Holdings Corporation, priority 2001, dated 2005)
Converted amounts (≈) assume the structure as drawn.

Legend:
Assay in all cases: in vitro antibacterial evaluation, MIC by broth dilution
Format in all cases: cell-based
[1] = tested on: Enterococcus sp.; details: broth dilution, 18 hours at 35° C.
Procedure: (§1) Methods for in vitro Antibacterial Evaluation (Table 1)
(§2) The minimum inhibitory concentration (MIC), the lowest concentration of the antibiotic which inhibits growth of the test organism, is determined by the broth dilution method using Muller-Hinton II […] (Baltimore Biological Laboratories) following the recommendations of the National Committee for Clinical Laboratory Standards [Methods for dilution antimicrobial susceptibility tests for bacteria that grow aerobically, approved standard M7-A2, National Committee for Clinical Laboratory Standards, Villanova, Pa.].
(§3) An inoculum level of 5×10^5 CFU/mL, and a range of antibiotic concentrations (64-0.06 μg/mL) is used. […] The test organisms include a spectrum of Gram-positive bacteria comprised of Staphylococcus sp., Streptococcus sp. and Enterococcus sp. These organisms include recent clinical isolates that are resistant to methicillin, penicillin and/or vancomycin.

[2] = tested on: Streptococcus sp.; details: broth dilution, 18 hours at 35° C.
Procedure: as §1, §2, §3

[3] = tested on: Staphylococcus sp.; details: broth dilution, 18 hours at 35° C.; for MIC Staphylococcus aureus (GC 1131): strain GC 1131
Procedure: as §1, §2, §3

[4] = tested on: Escherichia coli; details: 18 hours at 35° C.

MIC Enterococcus avium (GC 4558) [1]: 2 µg/mL (≈ 1.45 µM)
MIC Enterococcus faecalis (ATCC 29212) [1]: 4 µg/mL (≈ 2.91 µM)
MIC Enterococcus faecalis (GC 2242) [1]: 2 µg/mL (≈ 1.45 µM)
MIC Enterococcus faecalis (GC 2691) [1]: 4 µg/mL (≈ 2.91 µM)
MIC Enterococcus faecalis (GC 3059) [1]: 4 µg/mL (≈ 2.91 µM)
MIC Enterococcus faecalis (GC 4552) [1]: 4 µg/mL (≈ 2.91 µM)
MIC Enterococcus faecalis (GC 4553) [1]: 4 µg/mL (≈ 2.91 µM)
MIC Enterococcus faecalis (GC 4554) [1]: 4 µg/mL (≈ 2.91 µM)
MIC Enterococcus faecalis (GC 6189) [1]: 2 µg/mL (≈ 1.45 µM)
MIC Enterococcus faecium (GC 2243) [1]: 4 µg/mL (≈ 2.91 µM)
MIC Enterococcus faecium (GC 4556) [1]: 4 µg/mL (≈ 2.91 µM)
MIC Enterococcus faecium (GC 4557) [1]: 2 µg/mL (≈ 1.45 µM)
MIC Enterococcus faecalis (ATCC 29212) ([1]; inoculum 5×10^5 CFU/mL, strain ATCC 29212): 4 µg/mL (≈ 2.91 µM)
MIC Enterococcus faecalis (GC 2242) ([1]; inoculum 5×10^5 CFU/mL, strain GC 2242): 2 µg/mL (≈ 1.45 µM)
MIC Enterococcus faecium (GC 2243) ([1]; inoculum 5×10^5 CFU/mL, strain GC 2243): 4 µg/mL (≈ 2.91 µM)
MIC Enterococcus faecalis (GC 2691) ([1]; inoculum 5×10^5 CFU/mL, strain GC 2691): 4 µg/mL (≈ 2.91 µM)
MIC Enterococcus faecalis (GC 3059) ([1]; inoculum 5×10^5 CFU/mL, strain GC 3059): 4 µg/mL (≈ 2.91 µM)
MIC Enterococcus faecalis (GC 4552) ([1]; inoculum 5×10^5 CFU/mL, strain GC 4552): 4 µg/mL (≈ 2.91 µM)
MIC Enterococcus faecalis (GC 4553) ([1]; inoculum 5×10^5 CFU/mL, strain GC 4553): 4 µg/mL (≈ 2.91 µM)
MIC Enterococcus faecalis (GC 4554) ([1]; inoculum 5×10^5 CFU/mL, strain GC 4554): 4 µg/mL (≈ 2.91 µM)
MIC Enterococcus faecium (GC 4556) ([1]; inoculum 5×10^5 CFU/mL, strain GC 4556): 4 µg/mL (≈ 2.91 µM)
MIC Enterococcus faecium (GC 4557) ([1]; inoculum 5×10^5 CFU/mL, strain GC 4557): 2 µg/mL (≈ 1.45 µM)
MIC Enterococcus avium (GC 4558) ([1]; inoculum 5×10^5 CFU/mL, strain GC 4558): 2 µg/mL (≈ 1.45 µM)
MIC Enterococcus faecalis (GC 6189) ([1]; inoculum 5×10^5 CFU/mL, strain GC 6189): 2 µg/mL (≈ 1.45 µM)
MIC Streptococcus agalactiae (GC 4564) [2]: <0.12 µg/mL
MIC Streptococcus pneumoniae (ATCC 6301) [2]: <0.12 µg/mL
MIC Streptococcus pneumoniae (GC 1894) [2]: <0.12 µg/mL
MIC Streptococcus pneumoniae (GC 4565) [2]: <0.12 µg/mL
MIC Streptococcus pyogenes (GC 4563) [2]: <0.12 µg/mL
MIC Streptococcus pneumoniae (ATCC 6301) ([2]; inoculum 5×10^5 CFU/mL, strain ATCC 6301): <0.12 µg/mL
MIC Streptococcus pneumoniae (GC 1894) ([2]; inoculum 5×10^5 CFU/mL, strain GC 1894): <0.12 µg/mL
MIC Streptococcus pyogenes (GC 4563) ([2]; inoculum 5×10^5 CFU/mL, strain GC 4563): <0.12 µg/mL
MIC Streptococcus agalactiae (GC 4564) ([2]; inoculum 5×10^5 CFU/mL, strain GC 4564): <0.12 µg/mL
MIC Streptococcus pneumoniae (GC 4565) ([2]; inoculum 5×10^5 CFU/mL, strain GC 4565): <0.12 µg/mL
MIC Staphylococcus aureus (GC 1131) ([3]; inoculum 5×10^5 CFU/mL): 2 µg/mL (≈ 1.45 µM)
MIC Staphylococcus aureus (ATCC 29213) ([3]; strain ATCC 29213): 2 µg/mL (≈ 1.45 µM)
MIC Staphylococcus aureus (GC 1131) [3]: 2 µg/mL (≈ 1.45 µM)
MIC Staphylococcus aureus (GC 3051) ([3]; strain GC 3051): 1 µg/mL (≈ 0.727 µM)
MIC Staphylococcus aureus (GC 3053) ([3]; strain GC 3053): 2 µg/mL (≈ 1.45 µM)
MIC Staphylococcus aureus (GC 4541) ([3]; strain GC 4541): 2 µg/mL (≈ 1.45 µM)
MIC Staphylococcus aureus (GC 4542) ([3]; strain GC 4542): 1 µg/mL (≈ 0.727 µM)
MIC Staphylococcus aureus-SMITH (GC 4543) ([3]; strain GC 4543): 1 µg/mL (≈ 0.727 µM)
MIC Staphylococcus aureus (GC 4544) ([3]; strain GC 4544): 2 µg/mL (≈ 1.45 µM)
MIC Staphylococcus aureus (GC 4545) ([3]; strain GC 4545): 1 µg/mL (≈ 0.727 µM)
MIC Coagulase Negative Staphylococcus (GC 4547) ([3]; strain GC 4547): 2 µg/mL (≈ 1.45 µM)
MIC Coagulase Negative Staphylococcus (GC 4548) ([3]; strain GC 4548): 0.5 µg/mL (≈ 0.364 µM)
MIC Coagulase Negative Staphylococcus (GC 4549) ([3]; strain GC 4549): 0.5 µg/mL (≈ 0.364 µM)
MIC Coagulase Negative Staphylococcus (GC 4551) ([3]; strain GC 4551): 1 µg/mL (≈ 0.727 µM)
MIC Escherichia coli (ATCC 25922) [4]: 64 µg/mL (≈ 46.5 µM)
MIC Escherichia coli (GC 4559) [4]: 32 µg/mL (≈ 23.3 µM)
MIC Escherichia coli (GC 4560) [4]: 1 µg/mL (≈ 0.727 µM)
Compound: N=C1NCC(C(O)C2NC(=O)C(Cc3ccc(OC4OC(CO)C(OC5OC6COC(c7ccccc7)OC6C(O)C5O)C(O)C4O)cc3)NC(=O)C(CC3CCCCC3)NC(=O)CNC(=O)C(CO)NC(=O)C(C(O)C3CNC(=N)N3C3OC(CO)C(O)C(O)C3O)NC2=O)N1 (stereo not shown) [Example 199]
MIC Staphylococcus haemolyticus (GC 4546) ([3]; strain GC 4546): 1 µg/mL (≈ 0.727 µM)
